# Measured values as given in ChEMBL document CHEMBL5032514, “Portobelamides A and B and Caciqueamide, Cytotoxic Peptidic Natural Products from a Caldora sp. Marine Cyanobacterium” (2021).
# System: NCI-H460
# Assay: Cytotoxicity against human NCI-H460 cells assessed as cell survival at 0.9 uM measured after 48 hrs by MTT assay
# Format: functional
# Details: read-out: Activity
row,Compound,viability at 0.9 µM
1,C#CCCC[C@@H]1NC(=O)[C@H](C(C)C)N(C)C(=O)[C@H](COC)N(C)C(=O)[C@H](C(C)C)NC(=O)[C@H](COC)N(C)C(=O)[C@H](C)N(C)C(=O)[C@H](C(C)C)N(C)C(=O)[C@@H]2CCCN2C(=O)[C@H](C(C)C)NC(=O)[C@H]([C@@H](C)CC)N(C)C(=O)[C@H](C(C)C)N(C)C(=O)[C@@H](C(C)C)OC(=O)[C@H]1C,97%
2,C#CCCC[C@@H]1NC(=O)[C@H](C(C)C)N(C)C(=O)[C@H](C)N(C)C(=O)[C@H](COC)NC(=O)[C@H](C(C)C)N(C)C(=O)[C@H](CC(C)C)N(C)C(=O)[C@@H]2CCCN2C(=O)[C@H](C(C)C)NC(=O)[C@H](COC)N(C)C(=O)[C@H](C(C)C)NC(=O)[C@@H](C(C)C)OC(=O)[C@H]1C,33%
3,C/C=C(\NC(=O)C(NC(=O)C(C)C(O)CCCCCCCCCCCCC(=O)CCCC)C(C)O)C(=O)NC(C)c1nc(C(=O)NC(C)C(C)=O)cs1 (stereo not drawn),78%
